Experimental data: US7301033B2, “PPAR-activating compound” (Kowa Co., Ltd., priority 2005, dated 2007)

Tests used:
Assay type in all cases: cell-based
[1] = target: T1, human PPARγ2 (Homo sapiens, UniProt P37231); assay: Gal4-human PPARγ2 chimera luciferase transfection assay in COS cells; conditions: compound added at 1 μM, luciferase activity with rosiglitazone 1 μM given as 10.0, 16 hours
T1 construct: with 182nd to 505th amino acids of human PPARγ2; expressed in transfected cells; host or cells: COS cells (African green monkey kidney)
T1 sequence (P37231 182-505): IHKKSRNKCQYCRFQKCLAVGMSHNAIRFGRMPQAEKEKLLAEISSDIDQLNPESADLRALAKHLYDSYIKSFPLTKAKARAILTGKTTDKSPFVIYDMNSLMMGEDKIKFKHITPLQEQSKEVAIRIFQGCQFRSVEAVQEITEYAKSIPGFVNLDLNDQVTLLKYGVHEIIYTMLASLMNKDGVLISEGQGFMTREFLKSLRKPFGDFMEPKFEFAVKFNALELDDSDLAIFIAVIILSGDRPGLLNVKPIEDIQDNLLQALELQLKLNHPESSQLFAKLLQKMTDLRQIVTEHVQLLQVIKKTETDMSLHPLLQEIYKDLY
Procedure: (§1) The PPAR receptor-activating effect of the compound of the present invention represented by the formula (1) was measured by a method described below (Proc. Natl. Acad. Sci., 92, pp 7297-7301, 1995; Journal of Lipid Research, 40, pp 2099-2110, 1999; and Proc. Natl. Acad. Sci, 98, pp 5306-5311, 2001).
(§2) All the transfection assays were conducted using African green monkey kidney-derived cell line COS cells. The COS cells were cultured at 5% CO2 concentration using a DMEM medium containing 10% fetal bovine serum, glutamic acid, and an antibiotic as a culture solution.
(§3) Gal4-human PPARs chimeric constructs which were fused the DNA-binding region of yeast transcription factor Gal4 with the ligand-binding region of human PPARs were used as an expression vector. A chimera where 1st to 147th amino acids of the Gal4 transcription factor were fused with 166th to 467th amino acids of human PPARα, with 182nd to 505th amino acids of human PPARγ2, or with 137th to 441st amino acids of human PPARδ was used as the chimera for each isoform. A reporter vector used was firefly luciferase whose promoter region contains five Gal4 recognition sequences. The plasmids were transfected into the cells by a method using Lipofectamine. In addition, a β-galactosidase expression vector was used as an internal standard.
(§4) After the transfection into the cells, the medium was substituted with a DMEM medium (containing 0.2% serum) supplemented with the compound, in which the cells were then cultured for additional 16 hours. Thereafter, luciferase activity and β-galactosidase activity in the cell lysate were measured.
(§5) In the present experiment, dimethyl sulfoxide (DMSO) was used in the dissolution and dilution of the compound. When the cells were treated, the DMSO concentration in the DMEM medium (containing 0.2% serum) was adjusted to 0.1%.

[2] = target: T2, human PPARα (Homo sapiens, UniProt Q07869); assay: Gal4-human PPARα chimera luciferase transfection assay in COS cells; conditions: compound added at 1 μM, luciferase activity with WY14643 10 μM given as 10.0, 16 hours
T2 construct: 166th to 467th amino acids of human PPARα; expressed in transfected cells; host or cells: COS cells (African green monkey kidney)
T2 sequence (Q07869 166-467): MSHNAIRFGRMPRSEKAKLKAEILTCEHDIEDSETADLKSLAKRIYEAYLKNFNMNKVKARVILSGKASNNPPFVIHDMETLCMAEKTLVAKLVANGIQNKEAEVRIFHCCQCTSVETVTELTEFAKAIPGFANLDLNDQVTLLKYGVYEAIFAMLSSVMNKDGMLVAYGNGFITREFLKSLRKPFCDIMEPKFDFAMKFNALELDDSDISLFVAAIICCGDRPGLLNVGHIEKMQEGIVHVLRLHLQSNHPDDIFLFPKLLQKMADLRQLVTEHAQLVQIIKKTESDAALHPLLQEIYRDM
Procedure: as §1, §2, §3, §4, §5

[3] = target: T3, human PPARδ (Homo sapiens, UniProt Q03181); assay: Gal4-human PPARδ chimera luciferase transfection assay in COS cells; conditions: compound added at 1 μM, luciferase activity with GW501516 1 μM given as 10.0, 16 hours
T3 construct: with 137th to 441st amino acids of human PPARδ; expressed in transfected cells; host or cells: COS cells (African green monkey kidney)
T3 sequence (Q03181 137-441): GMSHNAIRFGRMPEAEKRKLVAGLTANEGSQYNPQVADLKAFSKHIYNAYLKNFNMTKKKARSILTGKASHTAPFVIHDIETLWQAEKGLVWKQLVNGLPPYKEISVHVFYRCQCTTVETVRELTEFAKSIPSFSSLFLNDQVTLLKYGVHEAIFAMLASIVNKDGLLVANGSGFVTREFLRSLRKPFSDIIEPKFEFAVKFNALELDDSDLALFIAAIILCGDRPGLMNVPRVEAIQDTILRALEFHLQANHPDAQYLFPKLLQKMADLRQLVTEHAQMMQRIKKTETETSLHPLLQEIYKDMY
Procedure: as §1, §2, §3, §4, §5

Compound | hPPAR; Relative activity γ [1] | hPPAR; Relative activity α [2] | hPPAR; Relative activity δ [3]
CCCCCCN(CCCCSc1ccccc1C(=O)O)c1nc2ccccc2o1 [Example 93, 2-[4-[N-(Benzoxazol-2-yl)-N-n-hexyl]aminobutylthio]benzoic acid] | 4.1 | 12.3 | 0.4
CCCCCCCCN(CCCCSc1ccccc1C(=O)O)c1nc2ccccc2o1 [Example 94, 2-[4-[N-(Benzoxazol-2-yl)-N-n-octyl]aminobutylthio]benzoic acid] | 3.5 | 12.0 | 1.4
O=C(O)c1ccccc1SCCCCN(CCCc1ccccc1)c1nc2ccccc2o1 [Example 97, 2-[4-[N-(Benzoxazol-2-yl)-N-3-phenylpropyl]aminobutylthio]benzoic acid] | 4.6 | 11.6 | 0.2
O=C(O)c1ccccc1SCCCCCN(Cc1ccc(Cl)cc1)c1nc2ccccc2o1 [Example 98, 2-[5-[N-(Benzoxazol-2-yl)-N-4-chlorobenzyl]aminopentylthio]benzoic acid] | 3.3 | 14.7 | 0.7
CCN(CCCCCSc1ccccc1C(=O)O)c1nc2ccccc2o1 [Example 99, 2-[5-[N-(Benzoxazol-2-yl)-N-ethyl]aminopentylthio]benzoic acid] | 2.2 | 16.8 | 0.3
CN(CCCCCSc1ccccc1C(=O)O)c1nc2ccccc2o1 [Example 100, 2-[5-[N-(Benzoxazol-2-yl)-N-methyl]aminopentylthio]benzoic acid] | 1.7 | 20.2 | 0.2
CCCCCCCCN(CCCCCSc1ccccc1C(=O)O)c1nc2ccccc2o1 [Example 102, 2-[5-[N-(Benzoxazol-2-yl)-N-n-octyl]aminopentylthio]benzoic acid] | 2.1 | 20.3 | 0.9

Second part, the molecule after the results:

hPPAR; Relative activity γ [1] | hPPAR; Relative activity α [2] | hPPAR; Relative activity δ [3] | Compound
2.0 | 12.4 | 0.2 | CCCN(CCCCCSc1ccccc1C(=O)O)c1nc2ccccc2o1 [Example 103, 2-[5-[N-(Benzoxazol-2-yl)-N-n-propyl]aminopentylthio]benzoic acid]
2.7 | 18.7 | 0.8 | O=C(O)c1ccccc1SCCCCCN(CCCc1ccccc1)c1nc2ccccc2o1 [Example 104, 2-[5-[N-(BenzoxazoI-2-yl)-N-3-phenylpropyl]aminopentylthio]benzoic acid]
2.5 | 25.3 | 4.2 | O=C(O)c1ccccc1SCCCCCN(CCCOc1ccccc1)c1nc2ccccc2o1 [Example 105, 2-[5-[N-(Benzoxazol-2-yl)-N-3-phenoxypropyl]aminopentylthio]benzoic acid]
2.4 | 13.1 | 0.0 | O=C(O)c1ccccc1SCCCCCCN(Cc1ccc(Cl)cc1)c1nc2ccccc2o1 [Example 106, 2-[6-[N-(Benzoxazol-2-yl)-N-4-chlorobenzyl]aminohexylthio]benzoic acid]
1.4 | 16.2 | 0.2 | CCN(CCCCSc1ccccc1C(=O)O)c1nc2ccccc2s1 [Example 108, 2-[4-[N-(Benzothiazol-2-yl)-N-ethyl]aminobutylthio]benzoic acid]
0.8 | 12.1 | 0.2 | CN(CCCCSc1ccccc1C(=O)O)c1nc2ccccc2s1 [Example 109, 2-[4-[N-(Benzothiazol-2-yl)-N-methyl]aminobutylthio]benzoic acid]
2.0 | 11.0 | 0.2 | CCCN(CCCCSc1ccccc1C(=O)O)c1nc2ccccc2s1 [Example 110, 2-[4-[N-(Benzothiazol-2-yl)-N-n-propyl]aminobutylthio]benzoic acid]
4.6 | 16.0 | 0.3 | O=C(O)c1ccccc1SCCCCN(CCOc1ccccc1)c1nc2ccccc2s1 [Example 111, 2-[4-[N-(Benzothiazol-2-yl)-N-2-phenoxyethyl]aminobutylthio]benzoic acid]
2.3 | 12.2 | 0.2 | CCCCCCCCN(CCCCCS(=O)(=O)c1ccccc1C(=O)O)c1nc2ccccc2o1 [Example 122, 2-[5-[N-(Benzoxazol-2-yl)-N-n-octyl]aminopentylsulfonyl]benzoic acid]
